The results in this text go back to article PMC7587356, “High-Throughput Screening for Inhibitors of the SARS-CoV-2 Protease Using a FRET-Biosensor” (Molecules, 2020).

Where a name gives a salt, the structure may show the parent alone. Read-outs that look alike come from different tables or passages of the source.

This experiment concerns the target SARS-CoV-2 3CLpro (Severe acute respiratory syndrome coronavirus 2, UniProt P0DTD1). Briefly: biochemical. Set-up: Replicate_1 / Replicate_2 / mean / mean (LOPAC_screen_w_protease): unit not given here. The settings on record: for inhibition at 5 µM: 4 h; for mean (LOPAC screen with protease) / Replicate_1 (LOPAC screen with protease) / Replicate_2 (LOPAC screen with protease): primary screen at 5 µM. It counts as biochemical.

Where [1] appears, read: sheet LOPAC_screen_w_protease, primary screen of LOPAC1280 at 5 µM with protease, mean of the two replicates, read-out: mean.
[2] abbreviates: sheet LOPAC_screen_w_protease, primary screen of LOPAC1280 at 5 µM with protease, replicate 1, read-out: Replicate_1.
Setting [3] is: sheet LOPAC_screen_w_protease, primary screen of LOPAC1280 at 5 µM with protease, replicate 2, read-out: Replicate_2.
[4] abbreviates: sheet LOPAC_screen_w_protease, primary screen with protease, compound at 5 µM, mean of two replicates, read-out: mean.
Setting [5] is: sheet LOPAC_screen_w_protease, primary screen with protease, compound at 5 µM, replicate 1, read-out: Replicate_1.
[6] abbreviates: sheet LOPAC_screen_w_protease, primary screen with protease, compound at 5 µM, replicate 2, read-out: Replicate_2.
Where [7] appears, read: sheet LOPAC_screen_w_protease, mean of two replicates.
The mark [8] stands for this setting: sheet LOPAC_screen_w_protease, replicate 1.
Setting [9] is: sheet LOPAC_screen_w_protease, replicate 2.
The mark [10] stands for this setting: LOPAC1280 primary screen with protease, 5 µM compound, mean of two replicates.
Setting [11] is: LOPAC1280 primary screen with protease, 5 µM compound, replicate 1.
[12] abbreviates: LOPAC1280 primary screen with protease, 5 µM compound, replicate 2.
Setting [13] is: sheet LOPAC_screen_w_protease, LOPAC1280 primary screen at 5 µM, with protease, mean of the two replicates.
Setting [14] is: sheet LOPAC_screen_w_protease, LOPAC1280 primary screen at 5 µM, with protease, replicate 1.
The mark [15] stands for this setting: sheet LOPAC_screen_w_protease, LOPAC1280 primary screen at 5 µM, with protease, replicate 2.
Where [16] appears, read: LOPAC1280 primary screen with protease, 5 µM compound, replicate 1, read-out: Replicate_1 (LOPAC_screen_w_protease).
[17] abbreviates: LOPAC1280 primary screen with protease, 5 µM compound, replicate 2, read-out: Replicate_2 (LOPAC_screen_w_protease).
[18] abbreviates: sheet LOPAC_screen_w_protease, primary screen with protease, mean of two replicates.
The mark [19] stands for this setting: sheet LOPAC_screen_w_protease, primary screen with protease, replicate 1.
Setting [20] is: sheet LOPAC_screen_w_protease, primary screen with protease, replicate 2.
The mark [21] stands for this setting: sheet LOPAC_screen_w_protease, LOPAC1280 at 5 µM, mean of two replicates, read-out: mean.
Setting [22] is: sheet LOPAC_screen_w_protease, LOPAC1280 at 5 µM, replicate 1, read-out: Replicate_1.
The mark [23] stands for this setting: sheet LOPAC_screen_w_protease, LOPAC1280 at 5 µM, replicate 2, read-out: Replicate_2.
The mark [24] stands for this setting: LOPAC1280 primary screen with protease, 5 µM compound, mean of the two replicates.
Setting [25] is: sheet LOPAC_screen_w_protease, primary screen with protease, mean of two replicates, read-out: mean.
The mark [26] stands for this setting: sheet LOPAC_screen_w_protease, primary screen with protease, replicate 1, read-out: Replicate_1.
The mark [27] stands for this setting: sheet LOPAC_screen_w_protease, primary screen with protease, replicate 2, read-out: Replicate_2.
Setting [28] is: sheet LOPAC_screen_w_protease, LOPAC1280 primary screen at 5 µM, with protease, mean of the two replicates, read-out: mean.
Setting [29] is: sheet LOPAC_screen_w_protease, LOPAC1280 primary screen at 5 µM, with protease, replicate 1, read-out: Replicate_1.
[30] abbreviates: sheet LOPAC_screen_w_protease, LOPAC1280 primary screen at 5 µM, with protease, replicate 2, read-out: Replicate_2.

For the compound `CCCn1c(=O)c2[nH]c(-c3ccc(OCC(=O)Nc4ccc(C#N)cc4)cc3)nc2n(CCC)c1=O` [MRS 1754], the inhibition at 5 µM stood at 3.78% under setting [1], 1.48% under setting [2] and 6.08% under setting [3].

On to `NS(=O)(=O)c1cc2c(cc1Cl)NC(C1CC3C=CC1C3)NS2(=O)=O` (stereo not drawn) [Cyclothiazide], for which the inhibition at 5 µM under setting [4] came to 2.93%, the inhibition at 5 µM under setting [5] was determined as 4.25% and the inhibition at 5 µM under setting [6] was 1.61%.

For `CC(N)C(O)c1ccc(O)c(O)c1` (single isomer, unassigned; (-)) [(-)-alpha-Methylnorepinephrine], under setting [7], the “mean (LOPAC screen with protease)” value is recorded as 8.627. In addition, the “Replicate_1 (LOPAC screen with protease)” value under setting [8] is reported as 8.881. Further, the “Replicate_2 (LOPAC screen with protease)” value under setting [9] turned out to be 8.372.

For the compound `N=C(N)NC(=O)Cc1c(Cl)cccc1Cl` [Guanfacine hydrochloride], the inhibition at 5 µM reads like this: under setting [4], 2.62%; under setting [5], 3.74%; under setting [6], 1.51%.

With `CCCCCCCCCCCCCCC[C@H](O)[C@H](N)CO` (racemic) [DL-erythro-Dihydrosphingosine], the “mean (LOPAC_screen_w_protease)” value under setting [10] is 1.428. Further, the “Replicate_1 (LOPAC_screen_w_protease)” value under setting [11] came to 4.536. The “Replicate_2 (LOPAC_screen_w_protease)” value under setting [12] is -1.681.

Under setting [13], `CC(C)[C@H]1CN[C@H](C(=O)O)[C@H]1CC(=O)O` [Dihydrokainic acid] returned a mean of 0.7305. Moreover, under setting [14], the Replicate_1 is on record as 1.689. Further, the Replicate_2 under setting [15] is on record as -0.2284.

Take `CCN(CC)CCOCCOC(=O)C1(c2ccccc2)CCCC1` [Carbetapentane citrate]: the inhibition at 5 µM is 2.35% under setting [16] and 1.05% under setting [17]. The “mean (LOPAC_screen_w_protease)” value under setting [10] came to 1.698.

For `CN1C(=O)CC[C@H]1c1cccnc1` [(-)-Cotinine], the mean under setting [18] turned out to be 2.4459. For the same compound, the Replicate_1 under setting [19] is 2.442. The same compound displayed a Replicate_2 under setting [20] of 2.45.

Take `NC1CCN(O)C1=O` (racemic) [(±)-HA-966]: the Replicate_1 turned out to be 0.2172, the Replicate_2 stood at 1.666 and the mean is on record as 0.9415.

`NCCCCNCCCN` [Spermidine trihydrochloride]: the inhibition at 5 µM was 4.14% (sheet LOPAC_screen_w_protease, LOPAC1280 primary screen with protease, 5 µM compound, mean of the two replicates, read-out: mean); 3.25% (sheet LOPAC_screen_w_protease, LOPAC1280 primary screen with protease, 5 µM compound, replicate 1, read-out: Replicate_1); 5.03% (sheet LOPAC_screen_w_protease, LOPAC1280 primary screen with protease, 5 µM compound, replicate 2, read-out: Replicate_2).

Consider `N[C@@H]1C[C@H]1c1ccccc1` [Tranylcypromine hydrochloride], for which the Replicate_1 was 0.4955, the Replicate_2 came out at 0.8775 and the mean came out at 0.6865.

Turning to `C=C[C@@]1(C)CC(=O)[C@]2(O)[C@@]3(C)[C@@H](O)CCC(C)(C)[C@@H]3[C@H](O)[C@H](OC(C)=O)[C@@]2(C)O1` [Forskolin], the inhibition at 5 µM reads like this: under setting [21], 1.29%; under setting [22], 1.85%; under setting [23], 0.734%.

As for `CC(=O)OCC(=O)[C@@]1(O)CC[C@H]2[C@@H]3CCC4=CC(=O)CC[C@]4(C)[C@H]3C(=O)C[C@@]21C` [Cortisone 21-acetate], the inhibition at 5 µM under setting [16] amounted to 2.66% and the inhibition at 5 µM under setting [17] stood at 0.881%. Besides, the “mean (LOPAC_screen_w_protease)” value under setting [24] was 1.771.

For `NCCCCCCCCCCN` [1,10-Diaminodecane], the inhibition at 5 µM is 2.36% under setting [25], 3.01% under setting [26] and 1.71% under setting [27].

On to `N[C@@H](Cn1cc(I)c(=O)[nH]c1=O)C(=O)O` [S-5-Iodowillardiine], for which the “mean (LOPAC screen with protease)” value under setting [7] is listed as 6.582. In addition, the “Replicate_1 (LOPAC screen with protease)” value under setting [8] came out at 5.993. The “Replicate_2 (LOPAC screen with protease)” value under setting [9] amounted to 7.171.

`C=CCN1CC[C@]23c4c5ccc(O)c4O[C@H]2C(=O)CC[C@@]3(O)[C@H]1C5` [Naloxone hydrochloride]: the inhibition at 5 µM is, setting by setting: under setting [1], 4%; under setting [2], 3.91%; under setting [3], 4.09%.

`O=C(CCCN1CCC(O)(c2ccc(Cl)cc2)CC1)c1ccc(F)cc1` [Haloperidol]: the inhibition at 5 µM under setting [16] amounted to 2.99% and the inhibition at 5 µM under setting [17] came out at 0.623%. The “mean (LOPAC_screen_w_protease)” value under setting [24] was 1.809.

Regarding `CC(=O)NCCc1c[nH]c2ccccc12` [N-Acetyltryptamine], the inhibition at 5 µM under setting [28] came out at 0.808%, the inhibition at 5 µM under setting [29] was 1.07% and the inhibition at 5 µM under setting [30] worked out at 0.543%.

For the compound `CC1(C)NC(=O)N(c2ccc([N+](=O)[O-])c(C(F)(F)F)c2)C1=O` [Nilutamide], the inhibition at 5 µM was 0.761% under setting [28], 2.22% under setting [29] and -0.697% under setting [30].

On to `CC(C(=O)O)c1ccc(CC2CCCC2=O)cc1` (stereo not drawn) [loxoprofen], for which the inhibition at 5 µM is, setting by setting: under setting [21], 1.2%; under setting [22], 0.313%; under setting [23], 2.09%.

`CC(NCCc1ccc(O)cc1)C(O)c1ccc(O)cc1` (stereo not drawn) [Ritodrine hydrochloride]: the inhibition at 5 µM was -0.392% (sheet LOPAC_screen_w_protease, primary screen with protease, 5 µM, mean of two replicates, read-out: mean); -0.659% (sheet LOPAC_screen_w_protease, primary screen with protease, 5 µM, replicate 1, read-out: Replicate_1); -0.126% (sheet LOPAC_screen_w_protease, primary screen with protease, 5 µM, replicate 2, read-out: Replicate_2).

For the compound `Cc1cccc(C#Cc2ccccc2)n1.Cl`, the mean (sheet LOPAC_screen_w_protease, primary screen with protease, compound at 5 µM, mean of two replicates) amounted to 3.1043. Under “sheet LOPAC_screen_w_protease, primary screen with protease, compound at 5 µM, replicate 1”, the Replicate_1 is on record as 2.241. The Replicate_2 (sheet LOPAC_screen_w_protease, primary screen with protease, compound at 5 µM, replicate 2) amounted to 3.968.

Under setting [13], `Br.Br.N=C(N)SCCc1ccc(CCSC(=N)N)cc1` [1,4-PBIT dihydrobromide] came in with a mean of 0.7618. Besides, the Replicate_1 under setting [14] stood at 0.8182. The same compound registered a Replicate_2 under setting [15] of 0.7055.

Under setting [18], `CCCCCCCCCCC/C=C\C(C)(C)/C=C\CCCC(=O)O` [7,7-Dimethyl-(5Z,8Z)-eicosadienoic acid] returned a mean of 2.303. Under setting [19], this compound gave a Replicate_1 of 4.092. The compound further registered a Replicate_2 under setting [20] of 0.5145.

Turning to `COc1ccc(CN(CCN(C)C)c2ccccn2)cc1` [Pyrilamine maleate], the inhibition at 5 µM runs as follows: under setting [25], 2.44%; under setting [26], 1.24%; under setting [27], 3.63%.

For the compound `CCOC(=O)N1CCC(=C2c3ccc(Cl)cc3CCc3cccnc32)CC1` [Loratadine], the inhibition at 5 µM is, setting by setting: under setting [28], 0.729%; under setting [29], -0.189%; under setting [30], 1.65%.

With `Cl.NNC(N)=O` [Semicarbazide hydrochloride], the “mean (LOPAC_screen_w_protease)” value under setting [10] turned out to be 1.574. For the same compound, the “Replicate_1 (LOPAC_screen_w_protease)” value under setting [11] worked out at 1.447. Besides, the “Replicate_2 (LOPAC_screen_w_protease)” value under setting [12] is on record as 1.701.

In turn, `CC(N)c1cccc(Cl)c1Cl.Cl` (racemic) returned a mean under setting [18] of 2.411. Moreover, the Replicate_1 under setting [19] is recorded as 4.03. Further, the Replicate_2 under setting [20] came to 0.7923.

In turn, `CNC(=O)[C@H]1O[C@@H](n2cnc3c(N)ncnc32)[C@H](O)[C@@H]1O` [5'-N-Methyl carboxamidoadenosine] displayed a mean (sheet LOPAC_screen_w_protease, primary screen of LOPAC1280 at 5 µM with protease, mean of the two replicates) of 3.814. For the same compound, where the note is “sheet LOPAC_screen_w_protease, primary screen of LOPAC1280 at 5 µM with protease, replicate 1”, the Replicate_1 is given as 3.632. Besides, for the setting “sheet LOPAC_screen_w_protease, primary screen of LOPAC1280 at 5 µM with protease, replicate 2”, the Replicate_2 amounted to 3.996.

As to `CC(CN1c2ccccc2Sc2ccccc21)N(C)C` (stereo not drawn) [Promethazine hydrochloride], the inhibition at 5 µM reads like this: under setting [1], 3.55%; under setting [2], 1.74%; under setting [3], 5.35%.

For `N=C(N)N1CCc2ccccc2C1` [Debrisoquin sulfate], the inhibition at 5 µM is, setting by setting: (read-out: Replicate_1) 2.87%; (read-out: Replicate_2) 3.04%; (read-out: mean) 2.96%.
